Reference: US6812034B2, “Fetuin-MGP-mineral complex in serum assayed to determine calcification risk” (The Regents of the University of California, priority 2000, dated 2004)

Legend:
Assay type in all cases: in vivo, rat
[1] = serum levels of calcium, phosphate, MGP and BGP after subcutaneous bisphosphonate; conditions: for Ionic calcium / total calcium: 8 mg/100 g
Method: Rats were fed rodent diet 5001 (Purina Mills Inc., St. […] Etidronate was dissolved with 0.15 M NaCl, titrated to pH 7.4 with dilute NaOH, and administered subcutaneously to forty-day-old male rats. Control animals received injections of 0.15 M NaCl only. […] At the times indicated in FIG. 1, each rat was anesthetized with metofane and a 400 μl sample of blood was withdrawn from the jugular vein. Blood samples were allowed to clot for 15 min at room temperature and serum was obtained after centrifugation in a clinical centrifuge and then frozen rapidly on dry ice and stored at -70° C. until later analysis. The same procedure was followed for the second time course experiment (FIG. 10), with the difference that the etidronate dose was increased to 32 mg per 100 g body weight. […] Two hours later, all rats were injected with etidronate at a dose of 8 mg/100 g (t=0), and 400 μl of blood were removed from each animal at the indicated times for biochemical analyses. […] In neither control group could we detect a significant change in serum levels of calcium, phosphate, or MGP at any time point. […] Rice et al. (1994) J. Bone Min. Res. 9: 567-576). Calcium levels in serum and other samples were determined colorimetrically using cresolphthalein complexone (Sigma) and phosphate levels in serum, effluent fractions, and other samples were determined calorimetrically as described (Chen et al. (1956) Anal. Chem. 28(11): 1756-1758). For determination of ionic calcium, freshly obtained blood samples were immediately placed into a 2.5 ml gold top vacutainer tube to avoid out gassing of CO2 and the associated shift in pH. […] Electrophoresis was carried out using 4 to 20% polyacrylamide gels (Novex, Inc., San Diego, Calif.) run in Tris-glycine buffer containing SDS. Protein sequencing was carried out on bands transferred to PVDF membranes using a Procise 494 Sequencer (ABI division, PE Biosystems, Foster City, Calif.).

[2] = system: aorta calcification in rats treated with vitamin D plus warfarin; assay: von Kossa staining for calcification in rats treated with vitamin D plus warfarin; conditions: 84 h; for Histology Score Observer #1 x ± S.D. / Histology Score Observer #2 x ± S.D.: score 0-5
Method: For measurement of mineral accumulation in arteries, each tissue was removed within 30 minutes of death and immediately frozen. Tissues were subsequently washed extensively with buffer and extracted with 1 ml of 10% formic acid for 24 h at room temperature, as described. Calcium levels in serum were determined colorimetrically using cresolphthalein complexone (Sigma) and phosphate levels in serum and in acid tissue extracts were determined calorimetrically as described (Zhu et al. (1994) Cardiology, 85: 370-377). Tissue sectioning and staining were carried out by Biomedical Testing Services, Inc., (San Diego, Calif.).
Male Sprague Dawley rats were fed ad libitum with rodent diet 5001 (Purina Mills Inc., St. Louis, Mo.), a diet that is 0.67% phosphorus and 0.95% calcium by weight. This diet contains 500 μg per kg of phylloquinone and has no added menadione. In all experiments, animals were killed by exsanguination while under metofane anesthetic, and selected tissues were removed immediately and fixed in 10% buffered formalin or frozen at −20° C. for later studies. All animal experiments were approved by the UCSD animal subjects committee.

[3] = system: growth plate cartilage mineralization; assay: microradiograph of the proximal tibia; conditions: 4 mg to 100 g rats at t=0 and 24 h, killed at 48 h
Method: These rats were exsanguinated at t=48 h. Serum was obtained at each time point and stored at -20° C. until later analysis. Tibias from the rats killed at 48 h, as well as from age-matched controls, were removed, cleaned of adhering tissue, and fixed in 70% ethanol. Tibia samples were embedded in plastic and cut into sections of 500 microns by Pathology Associates International (Frederickberg, Md.). The resulting sections were microradiographed using a Hewlett-Packard Model […] Faxitron Xray machine. All animal experiments were approved by the UCSD animal subjects committee.

[4] = filtration of serum through a 300 kDa membrane
Method: In a typical experiment, blood was obtained from 2 control rats and from 2 rats 6 h after a dose of 8 mg etidronate/100 g, and each blood sample was immediately placed into a 2.5 ml gold top vacutainer tube (SST gel and clot activator tube, Becton Dickinson). […] The filtrate and retentate were then analyzed to determine calcium, phosphate, and volume. The typical filtrate volume recovered was 0.70 ml and the typical retentate volume recovered was 0.26 ml.

[5] = 8 mg/100 g sc, 6 h, 0.26 ml retentate, 300 kDa membrane
[6] = 8 mg/100 g sc, 6 h, 0.7 ml filtrate, 300 kDa membrane
[7] = 8 mg/100 g sc, 6 h, 1 ml serum prior to filtration
[8] = 8 mg/100 g, 6 h serum incubated at room temperature for 1 day

CC(O)(P(=O)(O)O)P(=O)(O)O [Etidronate, (1-hydroxyethylylidene)-bisphosphonate]
increase in serum calcium, phosphate and MGP compared with the 8 mg/100 g dose ([1]; 4 mg/100 g body weight, 6 h, data not shown): smaller increase | elevation of serum calcium ([1]; 8 mg/100 g body weight sc): 1.8 fold | elevation of serum phosphate ([1]; 8 mg/100 g body weight sc): 1.6 fold | serum MGP ([1]; 8 mg/100 g body weight sc): 12 µg/mL | serum calcium ([1]; 8 mg/100 g body weight sc): 4.3 mM | serum phosphate ([1]; 8 mg/100 g body weight sc): 5.6 mM | time at which serum mineral complex reaches maximal levels ([1]; 8 mg/100 g sc): 6 h | time by which serum mineral complex is cleared from serum ([1]; 8 mg/100 g sc): ≤ 24 h | time of peak level of MGP ([1]; 8 mg/100 g sc): 6 h | time of peak serum BGP level ([1]; 8 mg/100 g sc): 1 h | time to half of maximal serum MGP levels ([1]; 8 mg/100 g sc): 3 h | time to half of maximal serum calcium and phosphate levels ([1]; 8 mg/100 g sc): 1 h | phosphate above control levels ([1]; 8 mg/100 g sc, by 6 h): 59% | total calcium above control levels ([1]; 8 mg/100 g sc, by 6 h): 76% | maximum elevation of serum BGP ([1]; 8 mg/100 g sc, data not shown): 3 fold | Ionic calcium ([1]; 1 h): 1.47 ± 0.04 mM | total calcium ([1]; 1 h): 3.45 ± 0.34 mM | Ionic calcium ([1]; 2 h): 1.51 ± 0.04 mM | total calcium ([1]; 2 h): 4.05 ± 0.44 mM | Ionic calcium ([1]; 6 h): 1.46 ± 0.03 mM | total calcium ([1]; 6 h): 4.41 ± 0.43 mM | time of maximal level in serum total calcium, phosphate and MGP ([1]; 32 mg/100 g sc): 6 to 9 h | level of serum ionized calcium ([1]; 32 mg/100 g sc, 6 h): no increase | serum levels of total calcium, phosphate and MGP ([1]; 32 mg/100 g sc, 24 h): remained substantially elevated | increase in serum MGP levels ([1]; 32 mg/100 g, within 6 h): 36 fold | increase in serum phosphate levels ([1]; 32 mg/100 g, within 6 h): 2.5 fold | serum MGP ([1]; 32 mg/100 g, within 6 h): 18 µg/mL | serum phosphate ([1]; 32 mg/100 g, within 6 h): 8.6 mM | total serum calcium ([1]; 32 mg/100 g, within 6 h): 8.8 mM | Histology Score Observer #1 x ± S.D. ([2]; 0.25 mg P/kg/day sc): 3.5 ± 1.3 | Histology Score Observer #2 x ± S.D. ([2]; 0.25 mg P/kg/day sc): 4.5 ± 1.0 | Histology Score Observer #1 x ± S.D. ([2]; 1.25 mg P/kg/day sc): 1.8 ± 2.4 | Histology Score Observer #2 x ± S.D. ([2]; 1.25 mg P/kg/day sc): 2.0 ± 2.4 | Histology Score Observer #1 x ± S.D. ([2]; 6.25 mg P/kg/day sc): 0.3 ± 0.5 | Histology Score Observer #2 x ± S.D. ([2]; 6.25 mg P/kg/day sc): 0.1 ± 0.3 | extent of von Kossa staining in the abdominal aorta ([2]; 6.25 mg P/kg/day, highest dose tested): significantly reduced | microradiograph of the proximal tibial metaphysis [3]: alternating bands of calcification and no calcification | Calcium, Retentate [4, 5]: 2.72 µmol | MGP, Retentate [4, 5]: 11,630 ng | Phosphate, Retentate [4, 5]: 1.84 µmol | Calcium, Filtrate [4, 6]: 1.18 µmol | MGP, Filtrate [4, 6]: 291 ng | Phosphate, Filtrate [4, 6]: 2.98 µmol | Calcium, Initial Serum [4, 7]: 4.30 µmol | MGP, Initial Serum [4, 7]: 14,800 ng | Phosphate, Initial Serum [4, 7]: 5.10 µmol | filtrate MGP [4, 8]: 320 ng | filtrate calcium [4, 8]: 1.21 µmol | filtrate phosphate [4, 8]: 2.79 µmol | retentate MGP [4, 8]: 12,127 ng | retentate phosphate [4, 8]: 2.02 µmol | retentate calcium ([4]; 8 mg/100 g, 6 h serum incubated at room temperature for 1 day, then 300 kDa filtration): 2.83 µmol | retentate and filtrate levels of calcium, phosphate and MGP vs serum filtered immediately ([4]; serum frozen on dry ice and thawed 5 times): comparable
